Results as given in US10377753B2, “Substituted 4-azaindoles and their use as GluN2B receptor modulators” (Janssen Pharmaceutica NV, priority 2015, dated 2019).

Target: cloned human NR1/NR2B ion channels (Homo sapiens (Human), UniProt Q05586+Q13224)
Assay: HNR2BC: effects of test articles on cloned human NR1/NR2B ion channels expressed in mammalian cells (FLIPR calcium flux)
Assay type: cell-based
Settings: cloned human NR1/NR2B, Table 5
Experimental: HNR2BC: Effects of Test Articles on Cloned Human NR1/NR2B Ion Channels Expressed in Mammalian Cells
NMDA receptors are ion channels that are highly permeable to Ca^2+ ions, rendering it possible to monitor NMDA receptor function using cell-based calcium flux assay. In this assay, co-agonists glutamate and glycine are added to cells heterologously expressing human GluN1/GluN2B NMDA receptors to initiate cellular Ca^2+ influx. The time course of the changes in intracellular calcium is measured using a fluorescent dye and a FLIPR (Fluorometric Imaging Plate Reader) device.
Twenty four hours before measurements, the expression of the NMDA receptors in the stable cell line is induced with Tet-On inducible system in the presence of a non-selective NMDA receptor blocker. On the day of the experiment, cell culture media is carefully washed and the cells are loaded with Calcium 5 Dye Kit (Molecular Devices) in dye loading buffer containing 137 mM NaCl, 4 mM KCl, 2 mM CaCl2, 0.5 mM MgCl2, 10 mM HEPES and 5 mM D-glucose; pH 7.4. After 1 h incubation at the room temperature, the dye is washed away with the assay buffer (137 mM NaCl, 4 mM KCl, 2 mM CaCl2, 0.01 mM EDTA, 10 mM HEPES and 5 mM D-glucose; pH 7.4) In the FLIPR TETRA reader, various concentrations of the test compounds are added to the cells for 5 min while fluorescence is monitored to detect potential agonist activity. Next, co-agonists, glutamate and glycine are added for another 5 minutes. The concentration of glutamate corresponding to ˜EC80 is used to maximize the assay's signal window and ability to detect NMDA receptor antagonists and negative allosteric modulators. A saturating concentration (10 μM) of glycine is also present in the assay. […] The fluorescent signal in the presence of test compounds is quantified and normalized to the signal defined by the appropriate control wells.

Sequence of cloned human NR1/NR2B ion channels (Q13224 27-1484, other chains not shown): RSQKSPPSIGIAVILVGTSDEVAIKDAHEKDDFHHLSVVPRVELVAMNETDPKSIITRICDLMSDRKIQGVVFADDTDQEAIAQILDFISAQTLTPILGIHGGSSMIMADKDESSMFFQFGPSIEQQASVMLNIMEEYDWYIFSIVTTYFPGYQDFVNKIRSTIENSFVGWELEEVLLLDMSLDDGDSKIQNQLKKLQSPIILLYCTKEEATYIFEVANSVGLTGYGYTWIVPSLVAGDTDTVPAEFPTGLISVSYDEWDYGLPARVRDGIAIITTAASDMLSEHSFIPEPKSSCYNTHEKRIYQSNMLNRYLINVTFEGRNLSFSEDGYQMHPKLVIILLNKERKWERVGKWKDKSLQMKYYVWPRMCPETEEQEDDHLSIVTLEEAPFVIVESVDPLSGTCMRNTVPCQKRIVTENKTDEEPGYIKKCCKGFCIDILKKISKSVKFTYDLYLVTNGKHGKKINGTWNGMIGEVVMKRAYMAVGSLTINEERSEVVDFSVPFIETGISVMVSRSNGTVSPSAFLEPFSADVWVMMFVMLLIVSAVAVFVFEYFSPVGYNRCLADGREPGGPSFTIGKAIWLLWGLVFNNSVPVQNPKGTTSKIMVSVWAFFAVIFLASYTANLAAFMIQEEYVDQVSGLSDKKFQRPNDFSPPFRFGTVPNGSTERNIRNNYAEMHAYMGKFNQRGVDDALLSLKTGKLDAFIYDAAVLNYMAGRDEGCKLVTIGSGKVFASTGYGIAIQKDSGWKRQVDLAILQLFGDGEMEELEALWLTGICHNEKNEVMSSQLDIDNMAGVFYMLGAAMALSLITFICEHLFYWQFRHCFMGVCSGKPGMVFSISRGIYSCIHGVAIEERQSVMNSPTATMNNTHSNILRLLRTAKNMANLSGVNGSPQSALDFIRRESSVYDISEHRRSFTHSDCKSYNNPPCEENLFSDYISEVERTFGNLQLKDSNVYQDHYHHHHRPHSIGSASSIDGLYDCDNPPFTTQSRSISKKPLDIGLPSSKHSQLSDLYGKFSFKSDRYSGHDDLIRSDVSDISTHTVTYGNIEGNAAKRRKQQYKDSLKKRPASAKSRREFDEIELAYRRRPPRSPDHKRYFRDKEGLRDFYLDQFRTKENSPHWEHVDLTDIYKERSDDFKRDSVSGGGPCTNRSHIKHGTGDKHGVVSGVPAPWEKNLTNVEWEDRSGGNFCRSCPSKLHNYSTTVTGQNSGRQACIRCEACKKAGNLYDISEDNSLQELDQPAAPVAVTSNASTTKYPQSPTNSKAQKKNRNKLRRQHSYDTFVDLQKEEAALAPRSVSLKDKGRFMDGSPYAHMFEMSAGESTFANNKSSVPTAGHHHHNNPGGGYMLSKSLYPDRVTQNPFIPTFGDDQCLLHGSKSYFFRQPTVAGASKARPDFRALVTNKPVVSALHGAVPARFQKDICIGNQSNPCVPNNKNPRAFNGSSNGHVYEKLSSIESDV

Row | IC50 [nM] | pIC50 | SMILES
1 | 50.1 | – | O=C(Cn1cc(Br)c2ncc(-c3ccc(F)cc3)cc21)N1CCOCC1 [Example 20, 2-[3-Bromo-6-(4-fluorophenyl)pyrrolo[3,2-b]pyridin-1-yl]-1-morpholino-ethanone]
2 | 39.8 | – | Cc1cccc(-c2cnc3c(Br)cn(CC(=O)NC4CC4)c3c2)c1 [Example 21, 2-[3-Bromo-6-(m-tolyl)pyrrolo[3,2-b]pyridin-1-yl]-N-cyclopropyl-acetamide]
3 | 25.1 | – | Cc1cccc(-c2cnc3c(Br)cn(CC(=O)N4CCC4)c3c2)c1 [Example 22, 1-(Azetidin-1-yl)-2-[3-bromo-6-(m-tolyl)pyrrolo[3,2-b]pyridin-1-yl]ethanone]
4 | 50.1 | – | Cc1cccc(-c2cnc3c(Br)cn(CC(=O)N4CCCC4)c3c2)c1 [Example 23, 2-[3-Bromo-6-(m-tolyl)pyrrolo[3,2-b]pyridin-1-yl]-1-pyrrolidin-1-yl-ethanone]
5 | 100 | – | Cc1cccc(-c2cnc3c(Br)cn(CC(=O)N4CCOCC4)c3c2)c1 [Example 24, 2-[3-Bromo-6-(m-tolyl)pyrrolo[3,2-b]pyridin-1-yl]-1-morpholino-ethanone]
6 | 79.4 | – | Cc1cc(-c2cnc3c(Cl)cn(CC(=O)N4CC(F)(F)C4)c3c2)ccc1F [Example 25, 2-[3-Chloro-6-(4-fluoro-3-methyl-phenyl)pyrrolo[3,2-b]pyridin-1-yl]-1-(3,3-difluoroazetidin-1-yl)ethanone]
7 | 39.8 | – | Cc1cc(-c2cnc3c(Cl)cn(CC(=O)N4CC(F)C4)c3c2)ccc1F [Example 26, 2-[3-Chloro-6-(4-fluoro-3-methyl-phenyl)pyrrolo[3,2-b]pyridin-1-yl]-1-(3-fluoroazetidin-1-yl)ethanone]
8 | 50.1 | – | Cc1cn(CC(=O)N2CCCC2)c2cc(-c3ccc(F)cc3)cnc12 [Example 27, 2-[6-(4-Fluorophenyl)-3-methyl-pyrrolo[3,2-b]pyridin-1-yl]-1-pyrrolidin-1-yl-ethanone]
9 | 200 | – | Cc1cn(CC(=O)N2CCOCC2)c2cc(-c3ccc(F)cc3)cnc12 [Example 28, 2-[6-(4-Fluorophenyl)-3-methyl-pyrrolo[3,2-b]pyridin-1-yl]-1-morpholino-ethanone]
10 | 20 | – | O=C(Cn1cc(Cl)c2ncc(-c3ccc(F)c(F)c3)cc21)N1CCC1 [Example 29, 1-(Azetidin-1-yl)-2-[3-chloro-6-(3,4-difluorophenyl)pyrrolo[3,2-b]pyridin-1-yl]ethanone]
11 | 20 | – | O=C(Cn1cc(Cl)c2ncc(-c3ccc(F)c(F)c3)cc21)N1CC(F)C1 [Example 30, 2-[3-Chloro-6-(3,4-difluorophenyl)pyrrolo[3,2-b]pyridin-1-yl]-1-(3-fluoroazetidin-1-yl)ethanone]
12 | 3160 | – | Cc1cc2ncc(-c3ccc(F)cc3)cc2n1CC(=O)N1CCOCC1 [Example 31, 2-[6-(4-Fluorophenyl)-2-methyl-pyrrolo[3,2-b]pyridin-1-yl]-1-morpholino-ethanone]
13 | 398 | – | Cc1cn(CC(=O)NC2CC2)c2cc(-c3ccc(F)cc3)cnc12 [Example 32, N-Cyclopropyl-2-[6-(4-fluorophenyl)-3-methyl-pyrrolo[3,2-b]pyridin-1-yl]acetamide]
14 | 63.1 | – | Cc1cn(CC(=O)N2CCC2)c2cc(-c3ccc(F)cc3)cnc12 [Example 33, 1-(Azetidin-1-yl)-2-[6-(4-fluorophenyl)-3-methyl-pyrrolo[3,2-b]pyridin-1-yl]ethanone]
15 | – | 7.8 | O=C(Cn1cc(Cl)c2ncc(-c3ccc(F)c(F)c3)cc21)N1CC(F)(F)C1 [Example 34, 2-[3-Chloro-6-(3,4-difluorophenyl)pyrrolo[3,2-b]pyridin-1-yl]-1-(3,3-difluoroazetidin-1-yl)ethanone]
16 | 200 | – | O=C(Cn1cc(Cl)c2ncc(-c3ccc(F)c(C(F)(F)F)c3)cc21)N1CC(F)C1 [Example 35, 2-[3-Chloro-6-[4-fluoro-3-(trifluoromethyl)phenyl]pyrrolo[3,2-b]pyridin-1-yl]-1-(3-fluoroazetidin-1-yl)ethanone]
17 | 100 | – | O=C(Cn1cc(Cl)c2ncc(-c3cccc(C(F)(F)F)c3)cc21)N1CC(F)(F)C1 [Example 36, 2-[3-Chloro-6-[3-(trifluoromethyl)phenyl]pyrrolo[3,2-b]pyridin-1-yl]-1-(3,3-difluoroazetidin-1-yl)ethanone]
18 | 1000 | – | Cc1cc2ncc(-c3ccc(F)cc3)cc2n1CC(=O)N1CCCC1 [Example 37, 2-[6-(4-Fluorophenyl)-2-methyl-pyrrolo[3,2-b]pyridin-1-yl]-1-pyrrolidin-1-yl-ethanone]
19 | 5010 | – | Cc1cc2ncc(-c3ccc(F)cc3)cc2n1CC(=O)NC1CC1 [Example 38, N-Cyclopropyl-2-[6-(4-fluorophenyl)-2-methyl-pyrrolo[3,2-b]pyridin-1-yl]acetamide]
20 | 31.6 | – | O=C(Cn1cc(Cl)c2ncc(-c3cc(F)c(F)c(F)c3)cc21)N1CC(F)C1 [Example 39, 2-[3-Chloro-6-(3,4,5-trifluorophenyl)pyrrolo[3,2-b]pyridin-1-yl]-1-(3-fluoroazetidin-1-yl)ethanone]
21 | 501 | – | O=C(Cn1cc(Cl)c2ncc(-c3ccc(F)c(C(F)(F)F)c3)cc21)N1CC(F)(F)C1 [Example 40, 2-[3-Chloro-6-[4-fluoro-3-(trifluoromethyl)phenyl]pyrrolo[3,2-b]pyridin-1-yl]-1-(3,3-difluoroazetidin-1-yl)ethanone]
22 | 25.1 | – | Cc1cccc(-c2cnc3cc(C)n(CC(=O)N4CCC4)c3c2)c1 [Example 41, 1-(Azetidin-1-yl)-2-[2-methyl-6-(m-tolyl)pyrrolo[3,2-b]pyridin-1-yl]ethanone]
23 | 2510 | – | Cc1cc2ncc(-c3ccccc3)cc2n1CC(=O)N1CCCC1 [Example 42, 2-(2-Methyl-6-phenyl-pyrrolo[3,2-b]pyridin-1-yl)-1-pyrrolidin-1-yl-ethanone]
24 | 200 | – | Cc1cccc(-c2cnc3cc(C)n(CC(=O)N4CCCC4)c3c2)c1 [Example 44, 2-[2-Methyl-6-(m-tolyl)pyrrolo[3,2-b]pyridin-1-yl]-1-pyrrolidin-1-yl-ethanone]
25 | 501 | – | Cc1cccc(-c2cnc3cc(C)n(CC(=O)N4CCOCC4)c3c2)c1 [Example 45, 2-[2-Methyl-6-(m-tolyl)pyrrolo[3,2-b]pyridin-1-yl]-1-morpholino-ethanone]
26 | 501 | – | Cc1cc2ncc(-c3ccc(F)cc3)cc2n1CC(=O)N1CCC1 [Example 46, 1-(Azetidin-1-yl)-2-[6-(4-fluorophenyl)-2-methyl-pyrrolo[3,2-b]pyridin-1-yl]ethanone]
27 | 79.4 | – | Cc1cc2ncc(-c3ccccc3)cc2n1CC(=O)N1CCC1 [Example 47, 1-(Azetidin-1-yl)-2-(2-methyl-6-phenyl-pyrrolo[3,2-b]pyridin-1-yl)ethanone]
28 | 631 | – | O=C(Cn1cc(Cl)c2ncc(-c3cccc(C(F)(F)F)c3)cc21)N1CC(F)C1 [Example 48, 2-[3-Chloro-6-[3-(trifluoromethyl)phenyl]pyrrolo[3,2-b]pyridin-1-yl]-1-(3-fluoroazetidin-1-yl)ethanone]
29 | 200 | – | O=C(Cn1cc(Cl)c2ncc(-c3cc(F)c(F)c(F)c3)cc21)N1CC(F)(F)C1 [Example 49, 2-[3-Chloro-6-(3,4,5-trifluorophenyl)pyrrolo[3,2-b]pyridin-1-yl]-1-(3,3-difluoroazetidin-1-yl)ethanone]
